Reference: article PMC9674596, “Origin of acetylcholine antagonism in ELIC, a bacterial pentameric ligand-gated ion channel” (Communications Biology, 2022)
Entries after “also recorded” stand apart in the source; their conditions may differ.

What was measured:
wild-type ELIC [1] = target: T1, wild-type ELIC (Dickeya chrysanthemi, UniProt P0C7B7, INS163G); test: Two-electrode voltage clamp, whole-cell currents of wild-type ELIC expressed in Xenopus laevis oocytes; format: cell-based, Erwinia chrysanthemi; details: for Activation by amine (whole-cell response): 25 mM amine
T1 construct: expressed in transfected cells; host or cells: Xenopus laevis oocytes injected with cRNA from ELIC-pTLN
Protocol: (§1) Stage V-VI Xenopus laevis oocytes were isolated[72] and deflocculated enzymatically in ND96 buffer without Ca^2+ (96 mM NaCl, 2 mM KCl, 1 mM MgCl2, 2 mM pyruvate, 5 mM HEPES, pH 7.4), but supplemented with 1 mg/mL collagenase B and 1 mg/mL trypsin inhibitor, for 2 h at room temperature under constant stirring. The deflocculation buffer was then gradually removed by washing the oocytes in ND96 buffer (96 mM NaCl, 2 mM KCl, 1 mM MgCl2, 1 mM CaCl2, 2 mM pyruvate, 5 mM HEPES, pH 7.4) for several iterations. The oocytes were then allowed to stir for an additional hour at room temperature under constant stirring with the buffer being periodically replaced until clear. To obtain optimal receptor expression, individually selected and healthy oocytes were injected with 0.2 ng cRNA for wild-type ELIC and 5 ng cRNA for mutants. Subsequently, oocytes were incubated for one day at 16 °C in ND96^+ buffer (96 mM NaCl, 2 mM KCl, 1 mM MgCl2, 1 mM CaCl2, 2 mM pyruvate, and 5 mM HEPES at pH 7.6). After expression, injected oocytes were placed in a RC-1Z oocyte chamber (Harvard Apparatus; Hamden, CT) containing buffer (pH 7.4) composed of 150 mM NaCl, 0.5 mM BaCl2, 10 mM HEPES, and 1 mM dithiothreitol or 1 µM atropine if cysteamine, or ACh, was used in the experiment, respectively. The presence of the reducing agent, dithiothreitol, ensures that the sulfhydryl group of cysteamine remains reduced.
(§2) Once in the oocyte chamber, whole-cell currents were recorded using a two-electrode voltage-clamp apparatus (OC-725C oocyte clamp; Harvard Apparatus), with a buffer flow rate of 5–10 mL min^−1. Currents in response to various additions of cysteamine and/or ACh, were measured with the transmembrane voltage clamped at −60 mV. Dose response curves for each wild-type and mutant ELIC were acquired from at least five oocytes in two different batches.
(§3) For identifying the half maximal effective concentration (EC50) and apparent Hill coefficient (nH) of cysteamine, dose response curves were created by taking the magnitude of each cysteamine-activated peak current (I) and normalizing this value to the maximal peak current in the presence of excess agonist (Imax). The log (base 10) cysteamine concentration in molar was then plotted on the x-axis against the fractional response (I/Imax) on the y-axis. The data was fitted using nonlinear regression with a variable slope sigmoidal dose response (Eq. 1, below) in GraphPad Prism (v.8.0.0).1 y=1/1+10^nH^LogEC50−X
Individual EC50 and Hill coefficients were averaged for each oocyte to derive a mean ± standard deviation. […] […] The log (base 10) ACh concentration was then plotted on the x-axis against the fractional response (I/Io) on the y-axis. Subsequent steps were the same as above for deriving a cysteamine EC50 and Hill coefficient. The individual IC50 and Hill coefficients were averaged for each oocyte to derive a mean ± one standard deviation. Lastly, to identify four normalized response values, cysteamine at the 10% maximal effective concentration (EC10), 20% maximal effective concentration (EC20), EC50 and 90% maximal effective concentration (EC90), was applied in the presence and absence of 25 mM ACh. The cysteamine-activated peak current with 25 mM ACh, was normalized to the cysteamine-activated peak current without ACh.

ELIC Y38W [2] = target: ELIC Y38W (Dickeya chrysanthemi, UniProt P0C7B7, Y38W); test: Two-electrode voltage clamp, Y38W mutant ELIC expressed in Xenopus laevis oocytes; format: cell-based, Erwinia chrysanthemi; details: Y38W
Protocol: as §1, §2, §3
(§4) Individual EC50 and Hill coefficients were averaged for each oocyte to derive a mean ± standard deviation. For identifying a half maximal inhibitory concentration (IC50) and Hill coefficient of ACh, a concentration of cysteamine corresponding to its EC50 was used in the presence of increasing concentrations of ACh. Peak currents elicited from cysteamine with ACh (I) were normalized to the initial cysteamine peak current in the absence of ACh (Io). The log (base 10) ACh concentration was then plotted on the x-axis against the fractional response (I/Io) on the y-axis. Subsequent steps were the same as above for deriving a cysteamine EC50 and Hill coefficient. The individual IC50 and Hill coefficients were averaged for each oocyte to derive a mean ± one standard deviation. Lastly, to identify four normalized response values, cysteamine at the 10% maximal effective concentration (EC10), 20% maximal effective concentration (EC20), EC50 and 90% maximal effective concentration (EC90), was applied in the presence and absence of 25 mM ACh. The cysteamine-activated peak current with 25 mM ACh, was normalized to the cysteamine-activated peak current without ACh.

ELIC Y38W [3] = test: as above; format: cell-based, Erwinia chrysanthemi; details: Y38W
Protocol: as §1, §2, §3, §4

ELIC A75D = target: T2, ELIC A75D (Dickeya chrysanthemi, UniProt P0C7B7, A75D/INS163G); test: Two-electrode voltage clamp, A75D mutant ELIC expressed in Xenopus laevis oocytes; format: cell-based, Erwinia chrysanthemi; details: A75D
T2 construct: expressed in transfected cells; host or cells: Xenopus laevis oocytes injected with cRNA from ELIC-pTLN

ELIC I79Y = target: T3, ELIC I79Y (Dickeya chrysanthemi, UniProt P0C7B7, I79Y/INS163G); test: Two-electrode voltage clamp, I79Y mutant ELIC expressed in Xenopus laevis oocytes; format: cell-based, Erwinia chrysanthemi; details: ACh 0.5 mM to 50 mM, followed by 5 mM cysteamine
T3 construct: expressed in transfected cells; host or cells: Xenopus laevis oocytes injected with cRNA from ELIC-pTLN
Protocol: as §1, §2, §3
as §4, with “The cysteamine-activated peak current with 25 mM ACh, was normalized to the cysteamine-activated peak current without ACh.” left out

ELIC F133W = ELIC F133W (Dickeya chrysanthemi, UniProt P0C7B7, F133W); test: cell-based; format: cell-based, Erwinia chrysanthemi; details: F133W
Protocol: as §1, §2, §3, §4

ELIC A75D/F133W = target: T4, ELIC A75D/F133W (Dickeya chrysanthemi, UniProt P0C7B7, A75D/F133W/INS163G); test: Two-electrode voltage clamp, A75D/F133W double mutant ELIC expressed in Xenopus laevis oocytes; format: cell-based, Erwinia chrysanthemi; details: for Activation by amine (whole-cell response): 25 mM amine; for Activation by amine (whole-cell response) / Effect of co-applied ligand on cysteamine-activated current: cysteamine at its EC50; for Effect of co-applied ligand on cysteamine-activated current: 25 mM ligand, 40 s pulse; for Potentiation of the cysteamine response on co-application: 50 mM co-applied in the middle of a cysteamine pulse at EC50 (6.9 mM); for Response when applied by themselves: 50 mM applied for 40 s without cysteamine
T4 construct: expressed in transfected cells; host or cells: Xenopus laevis oocytes injected with cRNA; DNA construct synthesised by Twist Bioscience
Protocol: as §1, §2, §3, §4

ELIC L240A (L9′A) = target: T5, ELIC L240A (L9′A) (Dickeya chrysanthemi, UniProt P0C7B7, L239A); test: Two-electrode voltage clamp, L240A (L9′A) mutant ELIC expressed in Xenopus laevis oocytes; format: cell-based, Erwinia chrysanthemi; details: L9′A; 30 s applications of ACh 0.5 to 50 mM, then 5 mM cysteamine
T5 construct: expressed in transfected cells; host or cells: Xenopus laevis oocytes injected with cRNA from ELIC-pTLN
Protocol: as §1, §2, §3
(§5) Individual EC50 and Hill coefficients were averaged for each oocyte to derive a mean ± standard deviation. For identifying a half maximal inhibitory concentration (IC50) and Hill coefficient of ACh, a concentration of cysteamine corresponding to its EC50 was used in the presence of increasing concentrations of ACh. […]

[4] = target: T6, ELIC L240A (L9′A) + A75D/F133W (Dickeya chrysanthemi, UniProt P0C7B7, A75D/F133W/L239A); test: Two-electrode voltage clamp, L9′A + A75D/F133W triple mutant ELIC expressed in Xenopus laevis oocytes; format: cell-based, Erwinia chrysanthemi; details: L9′A + A75D/F133W; 30 s applications of ACh 0.5 to 50 mM, then 5 mM cysteamine
T6 construct: expressed in transfected cells; host or cells: Xenopus laevis oocytes injected with cRNA
Protocol: as §1, §2, §3, §5

wild-type ELIC [5] = target: T1, wild-type ELIC; details: cited from earlier work
wild-type ELIC [6] = target: T1, wild-type ELIC; test: Two-electrode voltage clamp, whole-cell currents of wild-type ELIC expressed in Xenopus laevis oocytes; format: cell-based, Erwinia chrysanthemi; details: WT ELIC, ACh inhibition of GABA-activated current
[7] = WT, 25 mM ligand, 40 s pulse, cysteamine at its EC50
[8] = ACh inhibition, cysteamine at its EC50
[9] = cysteamine at EC10, EC20, EC50, EC90
[10] = ACh 0.5 mM to 50 mM, followed by 5 mM cysteamine

SMILES: CC(=O)OCC[N+](C)(C)C [ACh, acetylcholine]
- Inhibition Hill coefficient (wild-type ELIC [1]; WT ELIC, ACh inhibition of cysteamine-activated current): –1.1 ± 0.1
- Activation by amine (whole-cell response) (wild-type ELIC [1]; WT): fail to activate
- Effect of co-applied ligand on cysteamine-activated current (wild-type ELIC [1]; [7]): completely inhibited
- Effect of 25 mM ACh on cysteamine-activated currents (wild-type ELIC [1]; WT, cysteamine at EC10, EC20, EC50, EC90): nearly fully inhibited
- Peak current on application of ligand alone (wild-type ELIC [1]; WT, ACh 0.5 mM to 50 mM, followed by 5 mM cysteamine): None of the single mutants, nor wild-type ELIC, produced any peak current
- Inhibition Hill coefficient (ELIC Y38W [2]; [8]): –1.4 ± 0.1
- Effect of 25 mM ACh on cysteamine-activated currents (ELIC Y38W [2]; [9]): nearly fully inhibited
- Peak current on application of ligand alone (ELIC Y38W [2]; [10]): None of the single mutants, nor wild-type ELIC, produced any peak current
- Decrease in ACh IC50 relative to wild-type (ELIC Y38W [3]): 3 fold
- Increase in ACh IC50 relative to wild-type (ELIC A75D): 7 fold
- Inhibition Hill coefficient (ELIC A75D; [8]): –0.7 ± 0.1
- Effect of 25 mM ACh on cysteamine-activated currents (ELIC A75D; [9]): increasing the concentration of cysteamine reduced the degree of inhibition
- Peak current on application of ligand alone (ELIC A75D; [10]): None of the single mutants, nor wild-type ELIC, produced any peak current
- Peak current on application of ligand alone (ELIC I79Y): None of the single mutants, nor wild-type ELIC, produced any peak current
- Inhibition Hill coefficient (ELIC F133W; [8]): –1.1 ± 0.1
- Effect of 25 mM ACh on cysteamine-activated currents (ELIC F133W; [9]): increasing the concentration of cysteamine reduced the degree of inhibition
- Peak current on application of ligand alone (ELIC F133W; [10]): None of the single mutants, nor wild-type ELIC, produced any peak current
- Activation by amine (whole-cell response) (ELIC A75D/F133W): fail to activate
- Effect of co-applied ligand on cysteamine-activated current (ELIC A75D/F133W): same small degree of potentiation
- Potentiation of the cysteamine response on co-application (ELIC A75D/F133W): potentiation
- Effect of high ACh concentrations on cysteamine peak current (ELIC A75D/F133W; ACh 50–100 mM, cysteamine at EC50): appeared to potentiate
- ACh inhibition of the cysteamine response (ELIC A75D/F133W; cysteamine fixed at EC50 (6.9 mM), ACh up to 100 mM): failed to inhibit; also recorded: no inhibition by ACh is observed
- Current on application of ligand alone (ELIC L240A (L9′A)): Neither mutant produced observable current; also recorded: No ACh-induced currents were observed
- Current on application of ligand alone [4]: Neither mutant produced observable current; also recorded: No ACh-induced currents were observed
- Action on ELIC (wild-type ELIC [5]): competitive antagonist
- Inhibition Hill coefficient (wild-type ELIC [6]): –1.0 ± 0.3

SMILES: CC(=O)OCCN(C)C [DMAEA, 2-dimethylaminoethyl acetate]
- Activation by amine (whole-cell response) (wild-type ELIC [1]; WT): activate
- Effectiveness of activation compared with wild-type ELIC (ELIC A75D/F133W; 25 mM): much less effective than observed with wild-type ELIC
- Activation by amine (whole-cell response) (ELIC A75D/F133W): activate
- Action on ELIC (wild-type ELIC [5]): able to activate ELIC

SMILES: NCCCC(=O)O [GABA, γ-aminobutyric acid]
- Activation Hill coefficient (wild-type ELIC [1]; WT ELIC, agonist activation): 4.0 ± 0.7
- Increase of cysteamine-activated current by co-applied ligand (wild-type ELIC [1]; [7]): roughly 2 fold
- Macroscopic activation/deactivation kinetics of agonist-activated currents (wild-type ELIC [1]; WT, compared with cysteamine, agonists at their EC50): slower macroscopic activation/deactivation kinetics
- Activation by amine (whole-cell response) (ELIC A75D/F133W): fails to elicit a response
- Effect of co-applied ligand on cysteamine-activated current (ELIC A75D/F133W): same small degree of potentiation
- Action on ELIC (wild-type ELIC [5]): agonist

SMILES: [Cl-].[Na+] [NaCl, sodium chloride]
- Response when applied by themselves (ELIC A75D/F133W): negligible response
- Potentiation of the cysteamine response on co-application (ELIC A75D/F133W): small, but reproducible, degree of potentiation

SMILES: CCCN [propylamine]
- Action on ELIC (wild-type ELIC [5]): agonists

SMILES: OC[C@H]1O[C@@](CO)(O[C@H]2O[C@H](CO)[C@@H](O)[C@H](O)[C@H]2O)[C@@H](O)[C@@H]1O [sucrose]
- Response when applied by themselves (ELIC A75D/F133W): negligible response
- Potentiation of the cysteamine response on co-application (ELIC A75D/F133W): did not potentiate

SMILES: C[N+](C)(C)C [tetramethylammonium, Tetramethylammonium]
- Activation by amine (whole-cell response) (wild-type ELIC [1]; WT): fail to activate
- Activation by amine (whole-cell response) (ELIC A75D/F133W): fail to activate

SMILES: CN(C)C [trimethylamine, Trimethylamine]
- Activation by amine (whole-cell response) (wild-type ELIC [1]; WT): activate
- Activation by amine (whole-cell response) (ELIC A75D/F133W): activate
